Source: article PMC5065099 (Chemical biology & drug design, 2016)
Where two headings read alike, the source gives them in different places.

Key:
[1] = target: T1, AQP1 (Homo sapiens, UniProt P29972); assay type: biochemical
T1 sequence (P29972 1-269): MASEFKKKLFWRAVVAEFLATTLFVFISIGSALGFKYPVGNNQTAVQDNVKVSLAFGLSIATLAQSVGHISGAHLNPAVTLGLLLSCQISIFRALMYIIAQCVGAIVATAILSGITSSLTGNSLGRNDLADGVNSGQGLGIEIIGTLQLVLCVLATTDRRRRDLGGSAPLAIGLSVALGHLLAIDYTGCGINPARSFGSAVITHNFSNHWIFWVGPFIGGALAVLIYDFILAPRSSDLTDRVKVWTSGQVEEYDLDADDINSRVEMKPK

[2] = test system: AQP1; details: Xenopus oocytes; cited from earlier work

CC[N+](CC)(CC)CC [TEA, tetraethylammonium]
reduction in water transport (inhibitory action) [1]: ineffective
inhibition of AQP1 water transport [2]: no inhibition

CC(=O)Nc1nnc(S(N)(=O)=O)s1 [acetazolamide]
inhibition of AQP1 water transport [2]: no inhibition

[Cl][Hg][Cl] [HgCl2, mercuric chloride]
reduction in water transport (inhibitory action) ([1]; hypotonic shock, compounds at final 75 μM, HgCl2 50 μM): highly sensitive
